Where two headings read alike, the source gives them in different places.
Tests used:
[1] = 25°C
[2] = long-term animal studies; cited from earlier work
[3] = tested on: P-glycoprotein; conditions: cited from earlier work

## O=C1Nc2ccccc2/C1=C1/Nc2ccccc2C1=O [indirubin]
[1]; in Cremophor EL (surfactant)
  Solubility: 1.305 µmol/g
[1]; in Cremophor RH40 (surfactant)
  Solubility: 0.631 µmol/g
[1]; in GTCC (caprylic/capric triglyceride, oil)
  Solubility: 0.154 µmol/g
[1]; in IPM (isopropyl myristate, oil)
  Solubility: 0.087 µmol/g
[1]; in Labrafac Lipophile WL1349 (oil)
  Solubility: 0.159 µmol/g
[1]; in Labrafil M2125CS (oil)
  Solubility: 0.338 µmol/g
[1]; in Maisine 35-1 (oil)
  Solubility: 0.755 µmol/g
[1]; in Olive oil (oil)
  Solubility: 0.145 µmol/g
[1]; in PEG 200 (cosurfactant)
  Solubility: 0.093 µmol/g
[1]; in PEG 400 (cosurfactant)
  Solubility: 0.143 µmol/g
[1]; in Transcutol P (cosurfactant)
  Solubility: 1.356 µmol/g
[2]
  Bone marrow toxicity and hematotoxicity: neither bone marrow toxicity nor hematotoxicity
[3]
  Influence of P-glycoprotein on transport through the rat intestine membrane: not influenced

Reference: article PMC3292421 (International Journal of Nanomedicine, 2012)
